Ten molecules from paper PMC6423055, “Cathelicidins PMAP-36, LL-37 and CATH-2 are similar peptides with different modes of action” (Scientific Reports, 2019) can be followed below.

Where two headings read alike, the source gives them in different places. Positions of bridges follow the written chain, without caps; N, C: chain ends. Chains are numbered I, II in the order given. No end group written: not given here.

For data set [1], the system named is LPS-induced NO production by RAW264.7 cells. Format: cell-based, murine. As to conditions: 100 ng/ml LPS O111:B4, 24 h, Griess assay, compared with full-length PMAP-36.
For data set [2], the system named is LPS-induced TNFα secretion by RAW264.7 cells. Description: LPS stimulation, TNFα release (ELISA). Format: cell-based, murine. As to conditions: for LPS neutralization, TNFα secretion: compared with full-length PMAP-36.
Data set [3] concerns Escherichia coli O78. As to conditions: for Antibacterial activity against E. coli O78 compared with parent or dimeric counterpart: N = 3–7; for Minimal Bactericidal Concentration (MBC): O78, 3 h.
Data set [4] relates to Escherichia coli O78. It is filed as cell-based. The method, then: Escherichia coli O78 (E. coli) (Clinical isolate, Zoetis Animal Health, Kalamazoo, MI, USA) was grown in Mueller Hinton Broth (MHB) (Becton Dickinson, USA) to mid-logarithmic phase under constant shaking (200 RPM) at 37 °C. Antimicrobial activity of the peptides was tested using the colony count assay as described before. […] Next, 10-fold dilutions were made, of which 100 μl of the dilutions was spread to tryptic soy agar (TSA) (Oxoid, Basingstoke, UK) plates. Plates were incubated overnight at 37 °C and colonies were counted to determine the number of surviving bacteria. Minimal Bactericidal Concentration (MBC) was defined as ≤100 CFU/ml, the detection limit of the assay.
(§1) For transmission electron microscopy (TEM), E. coli was used in a higher concentration, (5*10^8 CFU/ml). […] E. coli was incubated with the peptides at MBC concentration or sub-MBC concentration (4x below MBC concentration). After 60 min at 37 °C, fixative (4% glutaraldehyde, 5 mM CaCl2, 10 mM MgCl2 (all from Merck, Darmstadt, Germany) in 0.1 M sodium cacodylate buffer (Sigma) pH 7.4) was added 1:1 to the bacterial-peptide mixture and left for fixation overnight at 4 °C. Samples were washed three times in 0.1 M sodium cacodylate buffer and resuspended in 4% low melting point agarose (Sigma). Samples were post-fixed with 1% osmium tetroxide (Electron Microscopy Sciences (EMS), Hatfield, PA, USA), 1.5% K3Fe(CN)6 (Merck) and 65 mM sodium cacodylate buffer for 2 hours at 4 °C to improve the contrast. After extensive washing with distilled water (5 × 10 min), samples were incubated for 60 min with 0.5% uranyl acetate (EMS) at 4 °C to improve cytoplasmic contrast. After washing with distilled water (3 × 10 min), samples were dehydrated with increasing concentration ethanol and embedded in Epon. […] Morphological effects were quantified for around 100 cells per condition.

The subject of the next data set is RAW264.7 cells. Description: Cell viability, WST-1 assay. As to conditions: WST-1, 24 h, peptide up to 40 μM, no peptide = 100% viability.
The test system of a further data set is porcine red blood cells. The experiment in a line: Hemolysis (heme release). The following applies: peptide 0.63–40 μM, 60 min 37 °C, A405, 0.2% Triton X-100 = 100% lysis, N = 5–7.
For a further data set, the system named is porcine PBMCs. Description: Cell viability, WST-1 assay. As to conditions: WST-1, 24 h, effect at 20–40 μM, N = 6.
Data set [5] in a line: Isothermal titration calorimetry, peptide binding to LPS. Also on record: species or system Escherichia coli. As to conditions: ITC, 37 °C. As for the experimental part: Isothermal titration calorimetry (ITC) was performed with the Low Volume NanoITC (TA Instruments-Waters LLC, New Castle, DE, USA) to determine interaction between LPS and the different peptides. 100 μM UltraPure LPS E. coli O111:B4 was diluted in MilliQ, after which 4x dilution in dPBS (Gibco) was made. Peptides were diluted to 800 μM in MilliQ, followed by 4-fold dilution in dPBS. The chamber was filled with 164 μl LPS, the peptide was titrated into the chamber with 1.96 μl every 300 seconds. Experiments were performed at 37 °C and analyzed using the Nano Analyze software (TA instruments-Waters LLC). All experiments were performed 2 times and corrected for buffer in buffer titration, after which the both experiments were averaged. Two independent models were used, except for LL-37 with one independent model fit, to determine the peptide-LPS interaction.

The subject of data set [6] is Escherichia coli O78. Description: Transmission electron microscopy of peptide-treated bacteria. Format: cell-based. The following applies: TEM, 5*10^8 CFU/ml, 60 min 37 °C. The method, then: as §1

Consider Ac-KRLKKIGKVLKWIPPIVGSIPLGS [mP12], for which the “LPS neutralization, NO production” value in [1] is “strongly reduced LPS neutralizing capacity”. Moreover, in data set [2] (100 ng/ml LPS O111:B4, 24 h), the “LPS neutralization, TNFα secretion” value is “strongly reduced LPS neutralizing capacity”. Further, in the data set with Escherichia coli O78 [3] (10^6 CFU/ml, 3 h 37 °C), the “Antibacterial activity against E. coli O78 compared with parent or dimeric counterpart” value is given as “identical to P12”.
As for Ac-KIGKVLKWIPPIVGSIPLGS [mP16], the “Antibacterial activity against E. coli O78 compared with parent or dimeric counterpart” value in the data set on Escherichia coli O78 [3] (10^6 CFU/ml, 3 h 37 °C) was “lost its antibacterial activity completely”.
For the molecule “I: Ac-RKKTRKRLKKIGKVLKWIPPIVGSIPLGCG / II: Ac-RKKTRKRLKKIGKVLKWIPPIVGSIPLGCG (disulfide I:29-II:29) [Peptide P7]”, the “LPS neutralization, NO production” value in data set [1] was “as strongly inhibited”. In addition, the “LPS neutralization, TNFα secretion” value in data set [2] (100 ng/ml LPS O111:B4, 24 h) is reported as “as strongly inhibited”. Moreover, the “Antibacterial activity against E. coli O78 compared with parent or dimeric counterpart” value in the data set on Escherichia coli O78 [3] (10^6 CFU/ml, 3 h 37 °C) is on record as “slightly more efficient than the full-length peptide”.
Regarding Ac-RKKTRKRLKKIGKVLKWIPPIVGSIPLGS [mP7], the “LPS neutralization, NO production” value in [1] is reported as “strongly reduced LPS neutralizing capacity”. Besides, the “LPS neutralization, TNFα secretion” value in [2] (100 ng/ml LPS O111:B4, 24 h) is reported as “strongly reduced LPS neutralizing capacity”. In addition, the “Antibacterial activity against E. coli O78 compared with parent or dimeric counterpart” value in the data set on Escherichia coli O78 [3] (10^6 CFU/ml, 3 h 37 °C) is on record as “slightly increased compared to their dimeric counterparts”.
Take RFGRFLRKIRRFRPKVTITIQGSARF-NH2 [CATH-2]: in the data set with Escherichia coli O78 [3], the “Minimal Bactericidal Concentration (MBC)” value fell in the range of 5 to 10 µM. The “MBC at higher density of bacteria” value in the data set with Escherichia coli O78 [4] (O78, 3 h) turned out to be 40 µM.
As for `CC[C@H](C)[C@H](NC(=O)[C@H](CCCCN)NC(=O)[C@H](CCC(=O)O)NC(=O)[C@H](CCCCN)NC(=O)[C@H](CO)NC(=O)[C@H](CCCCN)NC(=O)[C@H](CCCNC(=N)N)NC(=O)[C@H](Cc1ccccc1)NC(=O)[C@H](Cc1ccccc1)NC(=O)[C@H](CC(=O)O)NC(=O)CNC(=O)[C@H](CC(C)C)NC(=O)[C@@H](N)CC(C)C)C(=O)NCC(=O)N[C@@H](CCCCN)C(=O)N[C@@H](CCC(=O)O)C(=O)N[C@@H](Cc1ccccc1)C(=O)N[C@@H](CCCCN)C(=O)N[C@@H](CCCNC(=N)N)C(=O)N[C@H](C(=O)N[C@H](C(=O)N[C@@H](CCC(N)=O)C(=O)N[C@@H](CCCNC(=N)N)C(=O)N[C@H](C(=O)N[C@@H](CCCCN)C(=O)N[C@@H](CC(=O)O)C(=O)N[C@@H](Cc1ccccc1)C(=O)N[C@@H](CC(C)C)C(=O)N[C@@H](CCCNC(=N)N)C(=O)N[C@@H](CC(N)=O)C(=O)N[C@@H](CC(C)C)C(=O)N[C@H](C(=O)N1CCC[C@H]1C(=O)N[C@@H](CCCNC(=N)N)C(=O)N[C@H](C(=O)N[C@@H](CCC(=O)O)C(=O)N[C@@H](CO)C(=O)O)[C@@H](C)O)C(C)C)[C@@H](C)CC)C(C)C)[C@@H](C)CC` [LL-37], in the data set on RAW264.7 cells, the “Cytotoxicity against RAW264.7 cells” value is listed as “mildly cytotoxic”. In addition, the “Hemolysis of porcine erythrocytes” value in the data set on porcine red blood cells is “less than 10%”. Moreover, the “Cytotoxicity against porcine PBMCs” value in the data set on porcine PBMCs is recorded as “not”. Further, the “MBC at higher density of bacteria” value in the data set with Escherichia coli O78 [4] (5*10^8 CFU/ml E. coli O78, density used for TEM) stood at 160 µM.
For the molecule “Ac-GRFRRLRKKTRKRLKKIGKVLKWIPPIVGSIPLGS [mP1]”, the “LPS neutralization, NO production” value in data set [1] was “as efficient as the full-length peptide”. For the same molecule, the “LPS neutralization, TNFα secretion” value in [2] (100 ng/ml LPS O111:B4, 24 h) was “as efficient as the full-length peptide”. Further, the “Antibacterial activity against E. coli O78 compared with parent or dimeric counterpart” value in the data set with Escherichia coli O78 [3] (10^6 CFU/ml, 3 h 37 °C) was “slightly increased compared to their dimeric counterparts”.
As for “Ac-KRLKKIGKVLKWIPPIVGSIPLGCG (disulfide (positions not given here)) [Peptide P12, PMAP-36 analog with N-terminal truncation of 11 amino acids]”, the “LPS neutralization, NO production” value in data set [1] is recorded as “as strongly inhibited”. Further, in data set [2] (100 ng/ml LPS O111:B4, 24 h), the “LPS neutralization, TNFα secretion” value is recorded as “as strongly inhibited”. The “Antibacterial activity against E. coli O78 compared with parent or dimeric counterpart” value with Escherichia coli O78 [3] (10^6 CFU/ml, 3 h 37 °C) is listed as “slightly more efficient than the full-length peptide”.
With “I: Ac-KIGKVLKWIPPIVGSIPLGCG / II: Ac-KIGKVLKWIPPIVGSIPLGCG (disulfide I:20-II:20) [Peptide P16]”, the “LPS neutralization, NO production” value in data set [1] is given as “completely lost its LPS neutralizing capacity”. Besides, in [2] (100 ng/ml LPS O111:B4, 24 h), the “LPS neutralization, TNFα secretion” value was “completely lost its LPS neutralizing capacity”. For the same molecule, the “Minimal Bactericidal Concentration (MBC)” value in the data set on Escherichia coli O78 [3] is greater than 40 µM. For the same molecule, the “LPS binding” value in data set [5] is “still bound strongly to LPS”.
Regarding “I: Ac-GRFRRLRKKTRKRLKKIGKVLKWIPPIVGSIPLGCG / II: Ac-GRFRRLRKKTRKRLKKIGKVLKWIPPIVGSIPLGCG (disulfide I:35-II:35) [PMAP-36]”, the “Morphological changes of E. coli O78 at sub-MBC” value in the data set with Escherichia coli O78 [6] (4x below MBC (PMAP-36 5 μM, CATH-2 10 μM, LL-37 40 μM)) was “release of small vesicles”. For the same molecule, in the data set on Escherichia coli O78 [6] (MBC (PMAP-36 20 μM, CATH-2 40 μM, LL-37 160 μM)), the “Morphological changes of E. coli O78 at MBC” value was “DNA and ribosomes were clustered and located close to the inner membrane”. Besides, the “Concentration completely blocking TNFα secretion” value in data set [2] (100 ng/ml LPS O111:B4, 24 h, N = 3) is 10 µM. The IC50 in data set [2] (100 ng/ml LPS O111:B4, RAW264.7, 24 h, read-out: Concentration reducing LPS-induced macrophage activation for 50%) is 5 µM. Further, the “Concentration giving significant inhibition of E. coli O78” value with Escherichia coli O78 [3] (10^6 CFU/ml, 3 h 37 °C, vs no peptide control, N = 3–4) was 2.5 µM. In addition, in the data set on Escherichia coli O78 [3], the “Minimal Bactericidal Concentration (MBC)” value lay within 5 to 10 µM. Also, the “LPS binding” value in data set [5] is “strong LPS binding capacity”. Further, the “MBC at higher density of bacteria” value with Escherichia coli O78 [4] (O78, 3 h) is 20 µM.
